Test results published in US7138361B2, “Herbicidal heterocycles” (E. I. du Pont de Nemours and Company, priority 2000, dated 2006).

Key:
Type in all cases: in vivo
[1] = test system: blackgrass (Alopecurus myosuroides); assay: Test B postemergence
Procedure, shortened: (§1)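 Visual injury scores, 0 = no effect to 100 = complete control, assigned against controls after 13 to 15 days in the greenhouse. Compounds formulated in non-phytotoxic solvent plus surfactant and applied to soil after planting (pre) or onto foliage of 1- to 4-leaf plants (post).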

[2] = test system: corn (Zea mays); assay: Test B postemergence
Procedure, shortened: as §1

[3] = test system: velvetleaf (Abutilon theophrasti); assay: Test B postemergence
Procedure, shortened: as §1

[4] = test system: wheat (Triticum aestivum); assay: Test B postemergence
Procedure, shortened: as §1

[5] = test system: wild oat (Avena fatua); assay: Test B postemergence
Procedure, shortened: as §1

[6] = test system: Sunflower; assay: Test C preemergence; conditions: Rate 125 g/ha; scale 0 to 100, 0 no effect, 100 complete control
[7] = test system: Surinam grass (Brachiaria decumbens); assay: Test C preemergence; conditions: for Plant response rating (0 to 100), Surinam grass: Rate 500 g/ha, visual evaluation after 12 to 14 days
Procedure, shortened: (§2)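 Compounds in non-phytotoxic solvent with surfactant applied preemergence to planted seeds and postemergence to plants at 1- to 4-leaf stage (2–18 cm). Kept in greenhouse 12–14 days, then visually rated against controls on a 0 (no effect) to 100 (complete control) scale.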

[8] = test system: bermudagrass (Cynodon dactylon); assay: Test C preemergence; conditions: for Plant response rating (0 to 100 where 0 is no effect and 100 is complete control), Bermudagrass: Rate 500 g/ha, visual evaluation after 12 to 14 days
Procedure, shortened: as §2

[9] = test system: corn (Zea mays); assay: Test C preemergence; conditions: for Plant response rating (0 to 100), Corn: Rate 500 g/ha, visual evaluation after 12 to 14 days
Procedure, shortened: as §2

[10] = test system: crabgrass (Digitaria sanguinalis); assay: Test C preemergence; conditions: for Plant response rating (0 to 100), Crabgrass: Rate 500 g/ha, visual evaluation after 12 to 14 days
Procedure, shortened: as §2

[11] = test system: giant foxtail (Setaria faberii); assay: Test C preemergence; conditions: for Plant response rating (0 to 100), Foxtail, Giant: Rate 500 g/ha, visual evaluation after 12 to 14 days
Procedure, shortened: as §2

[12] = test system: goosegrass (Eleusine indica); assay: Test C preemergence; conditions: for Plant response rating (0 to 100), Goosegrass: Rate 500 g/ha, visual evaluation after 12 to 14 days
Procedure, shortened: as §2

[13] = test system: johnsongrass (Sorghum halepense); assay: Test C preemergence; conditions: for Plant response rating (0 to 100), Johnsongrass: Rate 500 g/ha, visual evaluation after 12 to 14 days
Procedure, shortened: as §2

[14] = test system: lambsquarters (Chenopodium album); assay: Test C preemergence; conditions: for Plant response rating (0 to 100), Lambsquarters: Rate 500 g/ha, visual evaluation after 12 to 14 days
Procedure, shortened: as §2

[15] = test system: morningglory (Ipomoea hederacea); assay: Test C preemergence; conditions: for Plant response rating (0 to 100), Morningglory: Rate 500 g/ha, visual evaluation after 12 to 14 days
Procedure, shortened: as §2

[16] = test system: pigweed (Amaranthus retroflexus); assay: Test C preemergence; conditions: for Plant response rating (0 to 100), Pigweed: Rate 500 g/ha, visual evaluation after 12 to 14 days
Procedure, shortened: as §2

[17] = test system: soybean (Glycine max); assay: Test C preemergence; conditions: for Plant response rating (0 to 100), Soybean: Rate 500 g/ha, visual evaluation after 12 to 14 days
Procedure, shortened: as §2

[18] = test system: velvetleaf (Abutilon theophrasti); assay: Test C preemergence; conditions: for Plant response rating (0 to 100), Velvetleaf: Rate 500 g/ha, visual evaluation after 12 to 14 days
Procedure, shortened: as §2

[19] = test system: woolly cupgrass (Eriochloa villosa); assay: Test C preemergence; conditions: for Plant response rating (0 to 100), Cupgrass, Woolly: Rate 500 g/ha, visual evaluation after 12 to 14 days
Procedure, shortened: as §2

[20] = test system: yellow nutsedge (Cyperus esculentus); assay: Test C preemergence; conditions: for Plant response rating (0 to 100), Nutsedge: Rate 500 g/ha, visual evaluation after 12 to 14 days
Procedure, shortened: as §2

[21] = Rate 125 g/ha, scale 0 to 100, 0 no effect, 100 complete control
[22] = Rate 500 g/ha, scale 0 to 100, 0 is no effect, 100 is complete control, 13 to 15 days
[23] = preemergence, Rate 62 g/ha, scale 0 to 100
[24] = preemergence, Rate 250 g/ha, scale 0 to 100, 0 no effect, 100 complete control
[25] = Rate 500 g/ha, scale 0 (no effect) to 100 (complete control), 13 to 15 days

Structure (SMILES): CCC(C)c1ccn(C2OCN(c3cccc(OC(F)F)c3)C2=O)n1 (stereo not shown) [Compound 134]
- Plant response rating, Blackgrass [1, 21]: 0
- Plant response rating, Blackgrass [1, 22]: 0
- Plant response rating, Corn [2, 21]: 0
- Plant response rating, Corn [2, 22]: 20
- Plant response rating, Velvetleaf [3, 21]: 0
- Plant response rating, Wheat [4, 21]: 0
- Plant response rating, Wild Oat [5, 21]: 0
- Plant response rating, Sunflower [6]: 0
- Plant response rating, Surinam grass [7, 21]: 100
- Plant response rating, Surinam grass [7, 23]: 100
- Plant response rating (0 to 100), Surinam grass ([7]; preemergence): 100
- Plant response rating, Surinam grass [7, 24]: 100
- Plant response rating, Bermudagrass [8, 21]: 100
- Plant response rating, Bermudagrass [8, 23]: 100
- Plant response rating (0 to 100 where 0 is no effect and 100 is complete control), Bermudagrass ([8]; preemergence): 100
- Plant response rating, Bermudagrass [8, 24]: 100
- Plant response rating, Corn [9, 21]: 20
- Plant response rating (0 to 100), Corn ([9]; preemergence): 100
- Plant response rating, Corn [9, 24]: 100
- Plant response rating, Crabgrass [10, 21]: 100
- Plant response rating, Crabgrass [10, 23]: 100
- Plant response rating (0 to 100), Crabgrass ([10]; preemergence): 100
- Plant response rating, Crabgrass [10, 24]: 100
- Plant response rating, Foxtail, Giant [11, 21]: 100
- Plant response rating, Foxtail, Giant [11, 23]: 90
- Plant response rating (0 to 100), Foxtail, Giant ([11]; preemergence): 100
- Plant response rating, Foxtail, Giant [11, 24]: 100
- Plant response rating, Goosegrass [12, 21]: 100
- Plant response rating, Goosegrass [12, 23]: 100
- Plant response rating (0 to 100), Goosegrass ([12]; preemergence): 100
- Plant response rating, Goosegrass [12, 24]: 100
- Plant response rating, Johnsongrass [13, 21]: 100
- Plant response rating, Johnsongrass [13, 23]: 100
- Plant response rating (0 to 100), Johnsongrass ([13]; preemergence): 100
- Plant response rating, Johnsongrass [13, 24]: 100
- Plant response rating, Lambsquarters [14, 21]: 100
- Plant response rating, Lambsquarters [14, 23]: 100
- Plant response rating (0 to 100), Lambsquarters ([14]; preemergence): 100
- Plant response rating, Lambsquarters [14, 24]: 100
- Plant response rating, Morningglory [15, 21]: 0
- Plant response rating, Morningglory [15, 23]: 0
- Plant response rating (0 to 100), Morningglory ([15]; preemergence): 0
- Plant response rating, Morningglory [15, 24]: 0
- Plant response rating, Pigweed [16, 21]: 100
- Plant response rating, Pigweed [16, 23]: 100
- Plant response rating (0 to 100), Pigweed ([16]; preemergence): 100
- Plant response rating, Pigweed [16, 24]: 100
- Plant response rating, Soybean [17, 21]: 0
- Plant response rating, Soybean [17, 23]: 0
- Plant response rating (0 to 100), Soybean ([17]; preemergence): 20
- Plant response rating, Soybean [17, 24]: 0
- Plant response rating, Velvetleaf [18, 21]: 20
- Plant response rating, Velvetleaf [18, 23]: 20
- Plant response rating (0 to 100), Velvetleaf ([18]; preemergence): 20
- Plant response rating, Velvetleaf [18, 24]: 20
- Plant response rating, Cupgrass, Woolly [19, 21]: 100
- Plant response rating, Cupgrass, Woolly [19, 23]: 100
- Plant response rating (0 to 100), Cupgrass, Woolly ([19]; preemergence): 100
- Plant response rating, Cupgrass, Woolly [19, 24]: 100
- Plant response rating, Nutsedge [20, 21]: 70
- Plant response rating, Nutsedge [20, 23]: 60
- Plant response rating (0 to 100), Nutsedge ([20]; preemergence): 100
- Plant response rating, Nutsedge [20, 24]: 90

Structure (SMILES): CCC(C)c1ccn(C2CCN(c3ccc(Br)c(OC)c3)C2=O)n1 (stereo not shown) [Compound 142]
- Plant response rating, Blackgrass [1, 21]: 0
- Plant response rating, Blackgrass [1, 25]: 0
- Plant response rating, Corn [2, 21]: 0
- Plant response rating, Corn [2, 25]: 30
- Plant response rating, Velvetleaf [3, 21]: 40
- Plant response rating, Velvetleaf [3, 25]: 70
- Plant response rating, Wheat [4, 21]: 0
- Plant response rating, Wheat [4, 25]: 0
- Plant response rating, Wild Oat [5, 21]: 0
- Plant response rating, Wild Oat [5, 25]: 0
- Plant response rating, Sunflower [6]: 20
- Plant response rating, Surinam grass [7, 21]: 0
- Plant response rating, Surinam grass [7, 23]: 0
- Plant response rating (0 to 100), Surinam grass ([7]; preemergence): 100
- Plant response rating, Surinam grass [7, 24]: 50
- Plant response rating, Bermudagrass [8, 21]: 100
- Plant response rating, Bermudagrass [8, 23]: 100
- Plant response rating (0 to 100 where 0 is no effect and 100 is complete control), Bermudagrass ([8]; preemergence): 100
- Plant response rating, Bermudagrass [8, 24]: 100
- Plant response rating, Corn [9, 21]: 0
- Plant response rating, Corn [9, 23]: 0
- Plant response rating (0 to 100), Corn ([9]; preemergence): 10
- Plant response rating, Corn [9, 24]: 0
- Plant response rating, Crabgrass [10, 21]: 100
- Plant response rating, Crabgrass [10, 23]: 100
- Plant response rating (0 to 100), Crabgrass ([10]; preemergence): 100
- Plant response rating, Crabgrass [10, 24]: 100
- Plant response rating, Foxtail, Giant [11, 21]: 100
- Plant response rating, Foxtail, Giant [11, 23]: 100
- Plant response rating (0 to 100), Foxtail, Giant ([11]; preemergence): 100
- Plant response rating, Foxtail, Giant [11, 24]: 100
- Plant response rating, Goosegrass [12, 21]: 100
- Plant response rating, Goosegrass [12, 23]: 100
- Plant response rating (0 to 100), Goosegrass ([12]; preemergence): 100
- Plant response rating, Goosegrass [12, 24]: 100
- Plant response rating, Johnsongrass [13, 21]: 0
- Plant response rating, Johnsongrass [13, 23]: 0
- Plant response rating (0 to 100), Johnsongrass ([13]; preemergence): 100
- Plant response rating, Johnsongrass [13, 24]: 100
- Plant response rating, Lambsquarters [14, 21]: 100
- Plant response rating, Lambsquarters [14, 23]: 100
- Plant response rating (0 to 100), Lambsquarters ([14]; preemergence): 100
- Plant response rating, Lambsquarters [14, 24]: 100
- Plant response rating, Morningglory [15, 21]: 100
- Plant response rating, Morningglory [15, 23]: 90
- Plant response rating (0 to 100), Morningglory ([15]; preemergence): 100
- Plant response rating, Morningglory [15, 24]: 100
- Plant response rating, Pigweed [16, 21]: 100
- Plant response rating, Pigweed [16, 23]: 100
- Plant response rating (0 to 100), Pigweed ([16]; preemergence): 100
- Plant response rating, Pigweed [16, 24]: 100
- Plant response rating, Soybean [17, 21]: 70
- Plant response rating, Soybean [17, 23]: 30
- Plant response rating (0 to 100), Soybean ([17]; preemergence): 100
- Plant response rating, Soybean [17, 24]: 100
- Plant response rating, Velvetleaf [18, 21]: 90
- Plant response rating, Velvetleaf [18, 23]: 10
- Plant response rating (0 to 100), Velvetleaf ([18]; preemergence): 100
- Plant response rating, Velvetleaf [18, 24]: 100
- Plant response rating, Cupgrass, Woolly [19, 21]: 100
- Plant response rating, Cupgrass, Woolly [19, 23]: 90
- Plant response rating (0 to 100), Cupgrass, Woolly ([19]; preemergence): 100
- Plant response rating, Cupgrass, Woolly [19, 24]: 100
- Plant response rating, Nutsedge [20, 21]: 0
- Plant response rating, Nutsedge [20, 23]: 0
- Plant response rating (0 to 100), Nutsedge ([20]; preemergence): 20
- Plant response rating, Nutsedge [20, 24]: 0
